Test results taken from patent US4124726A, “Anti-inflammatory agent of benzoyl derivative” (priority 1976, dated 1978).

Tests used:
in vivo = details: mouse, po
Description: Each sample was dissolved in olive oil or dispersed in 1% Tween 20 aqueous solution.

thrombosis = assay: inhibiting effect on thrombosis (arterio-venous by-pass, silk thread); assay type: in vivo, SD type male rats; details: Rattus norvegicus; 100 mg/kg oral, 5 hours before first circulation, rats; read-out: Thrombosis inh.
Description: Inhibiting effect on thrombosis:
The inhibiting effects of the samples of the invention on thrombosis were tested by the following test method.
A 0.5 ml of 50 μ/ml of the heparin physiological saline was added through the polyethylene tube before the first blood circulation. After the blood circulation for 15 minutes, the circulation was stopped in the middle of the tubing at artery side with a pinch cock.
Then, 0.2 ml of the heparin physiological saline was added to remove the blood coagulates on the tubing wall and another new polyethylene tubing filled with the heparin solution and containing a piece of new silk thread was attached between the venous and artery tubing ends.
The blood circulation was reestablished by opening the pinch cock. After 15 minutes, the wet weight of thrombus on the silk thread was similarly measured. In the same manner, the third circulation was performed and wet weight of thrombus measured.
The amount of thrombus was given by the equation A. [formula] Each sample was suspended in an aqueous solution of sodium carboxymethyl cellulose and the oral dose of the suspension (100 mg/kg) was performed at 5 hours before the first blood circulation. The amount of thrombus after the oral dose of the sample was calculated in the same manner as that of control circulations.
The thrombosis inhibition rate was given by the equation B. [formula]

[1] = test system: painful stretchings induced by acetic acid; assay: acetic acid induced stretching (analgesic effect)
Description: Each sample was orally administrated in the dosage of 100 mg/kg before injection of acetic acid.

platelet aggregation = assay: blood platelet aggregation inhibition, collagen as inducer; assay type: cell-based; details: 10^-4 mole, rabbit PRP
From the text: Blood platelet aggregation inhibiting effect
Male rabbits (Japan original white strain 3.3 to 3.6 kg) were anesthetized with Thiopental sodium and blood was sampled from the carotid artery.

carragheenin edema = assay: acute carragheenin edema inhibition (anti-inflammatory effect); assay type: in vivo, male rats; details: Rattus norvegicus, carragheenin edema, rats, Table 2
Description: The edema was induced by subcutaneous injection of 1% carraheenin suspension in saline to the hind paws of male rats weighing 150 to 180 g. Each sample was orally given at the dosage of 100 mg/kg just before the inoculation of carragheenin.

| Structure (SMILES) | LD50 at 72 h (in vivo) [mg/kg] | inhibition in vivo at 100 mg/kg (thrombosis) [%] | Analgesic (percentage diminution of times of painful stretchings) ([1]; 100 mg/kg oral, 0.7% acetic acid i.p., mice) [%] | Blood platelet agg. inh. (percentage inhibition of platelet aggregation) (platelet aggregation) [%] | ED50 (carragheenin edema; oral, read-out: 50% inhibition rate ED50) [mg/kg] | inhibition in vivo at 100 mg/kg ([1]; Mus musculus, po, read-out: Analgesic (percentage diminution of times of painful stretchings)) [%] | inhibition at 100 µM (platelet aggregation; Oryctolagus cuniculus, Platelet, read-out: Blood platelet agg. inh. (percentage inhibition of platelet aggregation)) [%] | inhibition in vivo at 100 mg/kg (carragheenin edema; 100 mg/kg oral, read-out: Anti-inf. (edema inhibition rate)) [%] |
| --- | --- | --- | --- | --- | --- | --- | --- | --- |
| Cc1ccc(C)c(C(=O)c2ccccc2)c1 [compound 38] | 1000 | 8.3 | 18.0 | 20.9 | 170 |  |  |  |
| O=C(c1ccccc1)c1ccc(C2CCCCC2)cc1 [compound 73] | 6000 | 28.8 |  |  |  | 10 | 20.3 | 32.1 |
